According to publication PMC8795987, “Time-dependent inhibition of CYP3A4-mediated midazolam metabolism by macrolide antibiotics in CYP3A4 genetic variants: Comparison with testosterone metabolism” (International Journal of Clinical Pharmacology and …, 2021):

How the values were obtained:
[1] = system: CYP3A4 WT, .2, .7, .16, .18; experiment: Mechanism-based inhibition of midazolam 1′-hydroxylation, results stated across the five variants; type: biochemical, human; settings: human, pH 7.4, probe midazolam 2 µM (1′-hydroxylation), range over the five variants
Experimental: (§1) Next, 4 µM midazolam solution (final concentration at incubation: 2 µM) together with NADPH-generating system solution and 300 mM K^+ phosphate buffer containing 0.3 mM EDTA were added to start the metabolic reaction for 20 minutes at 37 °C. The reaction was terminated by the addition of 450 µL of ice-cold methanol, followed by 50 µL of 0.1 µM nitrazepam as an internal standard. The mixture was then centrifuged at 3,500 ×g for 20 minutes at 4 °C, and the concentration of 1′-hydroxymidazolam in the supernatant was determined using HPLC-ultraviolet (UV) method described below.
(§2) The HPLC system consisted of a pump ([…]; Shimadzu, Kyoto, Japan), an UV-detector SPD-10AD (Shimadzu), and an octadecylsilyl column (Cosmosil, 5C18-MS-II, 4.6×250 mm, ODS; Nacalai Tesque, Kyoto, Japan). The mobile phase consisted of 50% methanol (v/v) and was pumped at a rate of 1.5 mL/min. The UV wavelength was set at 245 nm.
(§3) Based on the static model, residual enzyme activity (ε) under the steady state is determined by the inactivation rate by the MBI inhibitor (k inact ([I])) and the turnover rate in the absence of inhibitor (k deg), and calculated by using the following Equation 2.

[2] = system: five CYP3A4 genetic variants (Wt, .2, .7, .16, .18); experiment: as above; type: biochemical, human; settings: all CYP3A4 variants; preincubation with NADPH-generating system
Experimental: as §1, §2, §3

[3] = system: CYP3A4 genetic variants; experiment: Static model estimate of residual enzyme activity and midazolam AUC ratio in CYP3A4 genetic variants; set-up: species or system human; settings: all genetic variants; increase in AUC of 2- to < 5-fold; estimated
Experimental: as §3

[4] = Clinical plasma concentration; type: in vivo, human; settings: for Cmax,u (maximum plasma unbound concentration in the clinical settings): Cmax × fu; for Cmax: oral, human plasma, converted from μg/mL
[5] = target: T1, CYP3A4 WT (Homo sapiens, UniProt P08684); experiment: Mechanism-based inhibition of midazolam 1′-hydroxylation by recombinant CYP3A4 WT; type: biochemical; settings: substrate midazolam, geometric mean (–1S.D. ~ +1S.D.), n = 5, read-out: K I
T1 construct: made in house; host or cells: Escherichia coli
Experimental: (§4) 1′-Hydroxymidazolam was purchased from Biosciences-Discovery Labware (Tokyo, Japan). The membrane fraction of CYP3A4 (WT, .2, .7, .16, .18) expressed by Escherichia coli were prepared according to our previously reported method. All other chemicals and reagents of analytical and high-performance liquid chromatography (HPLC) grade were obtained from commercial sources.
as §1, §2

[6] = target: T2, CYP3A4.2 (Homo sapiens, UniProt P08684, S222P); experiment: Mechanism-based inhibition of midazolam 1′-hydroxylation by recombinant CYP3A4.2; type: biochemical; settings: substrate midazolam, geometric mean (–1S.D. ~ +1S.D.), n = 5
T2 construct: made in house; host or cells: Escherichia coli
Experimental: as §4, §1, §2

[7] = target: T3, CYP3A4.7 (Homo sapiens, UniProt P08684, G56D); experiment: Mechanism-based inhibition of midazolam 1′-hydroxylation by recombinant CYP3A4.7; type: biochemical; settings: substrate midazolam, geometric mean (–1S.D. ~ +1S.D.), n = 5
T3 construct: made in house; host or cells: Escherichia coli
Experimental: as §4, §1, §2

[8] = target: T4, CYP3A4.16 (Homo sapiens, UniProt P08684, T185S); experiment: Mechanism-based inhibition of midazolam 1′-hydroxylation by recombinant CYP3A4.16; type: biochemical; settings: substrate midazolam, geometric mean (–1S.D. ~ +1S.D.), n = 5
T4 construct: made in house; host or cells: Escherichia coli
Experimental: as §4, §1, §2

[9] = erythromycin; cited from earlier work
[10] = system: CYP3A; settings: cited from earlier work

T2 sequence (P08684 whole entry S222P): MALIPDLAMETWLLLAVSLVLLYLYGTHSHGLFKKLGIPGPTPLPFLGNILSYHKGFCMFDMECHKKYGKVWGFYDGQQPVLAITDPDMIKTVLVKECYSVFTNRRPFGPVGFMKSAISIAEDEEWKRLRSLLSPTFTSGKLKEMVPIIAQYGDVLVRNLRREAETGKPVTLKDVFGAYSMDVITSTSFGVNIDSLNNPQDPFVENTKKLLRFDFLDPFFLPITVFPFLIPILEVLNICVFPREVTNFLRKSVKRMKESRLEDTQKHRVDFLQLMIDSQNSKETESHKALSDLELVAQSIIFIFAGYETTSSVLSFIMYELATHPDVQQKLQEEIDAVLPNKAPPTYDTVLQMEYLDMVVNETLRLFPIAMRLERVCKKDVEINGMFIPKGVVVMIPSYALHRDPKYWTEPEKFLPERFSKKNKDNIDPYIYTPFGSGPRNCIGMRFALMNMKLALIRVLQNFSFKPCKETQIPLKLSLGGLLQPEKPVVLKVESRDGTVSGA
T4 sequence (P08684 whole entry T185S): as the sequence (P08684 whole entry S222P) above, with T185S, P222S counted along it
T1 sequence (P08684 whole entry): as the sequence (P08684 whole entry S222P) above, with P222S counted along it
T3 sequence (P08684 whole entry G56D): as the sequence (P08684 whole entry S222P) above, with G56D, P222S counted along it

CC[C@H]1OC(=O)[C@H](C)[C@@H](O[C@H]2C[C@@](C)(OC)[C@@H](O)[C@H](C)O2)[C@H](C)[C@@H](O[C@@H]2O[C@H](C)C[C@H](N(C)C)[C@H]2O)[C@](C)(OC)C[C@@H](C)C(=O)[C@H](C)[C@@H](O)[C@]1(C)O [Clarithromycin]
Ki ([1]; in vitro data in the present study, substrate midazolam, read-out: KI (range among variants)): 689 to 2690 nM
KI (inactivation) ([1]; product of K I and fu,mic, read-out: KI,u (unbound concentration of inhibitor that confers half-maximal rate of inactivation)): 590 to 2310 nM
inhibition of 1′-hydroxylation of midazolam by all CYP3A4 variants [2]: time-dependent manner
extent of DDI category based on the FDA guideline [3]: moderate
Cmax,u (maximum plasma unbound concentration in the clinical settings) [4]: 775 nM
Cmax [4]: 1550 nM

CC[C@H]1OC(=O)[C@H](C)[C@@H](O[C@H]2C[C@@](C)(OC)[C@@H](O)[C@H](C)O2)[C@H](C)[C@@H](O[C@@H]2O[C@H](C)C[C@H](N(C)C)[C@H]2O)[C@](C)(O)C[C@@H](C)C(=O)[C@H](C)[C@@H](O)[C@]1(C)O [Erythromycin]
KI (inactivator concentration giving half-maximal inactivation rate) [5]: 677 nM
Ki [6]: 1140 nM
Ki [7]: 512 nM
Ki [8]: 1820 nM
Cmax,u (maximum plasma unbound concentration in the clinical settings) [4]: 721 nM
Cmax [4]: 1120 nM
fu,mic (estimated unbound fraction in microsomal preparation) [9]: 0.857

Cc1ncc2n1-c1ccc(Cl)cc1C(c1ccccc1F)=NC2 [midazolam, Midazolam]
fm,CYP3A (contribution of 1-hydroxylation by CYP3A to overall systemic elimination) [10]: 98%
